Assay results reported in patent US4442044A, “Process for preparing monoesters and diesters of N-alkyl substituted amino methyl phosphonic acid” (priority 1983, dated 1984).

Assays:
Format in all cases: in vivo
Soybean = assay: post-emergent herbicidal activity, greenhouse; settings: Table II
How it was run: (§1)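 Post-emergence foliar spray at tabulated application rates, using aliquots of a 1.0% stock in acetone, THF or water plus ~0.4% emulsifier, applied to 2–3-week-old greenhouse plants. Plant injury was rated relative to controls roughly two and four weeks after treatment.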

Wheat = assay: post-emergent herbicidal activity, greenhouse; settings: Table II
How it was run: as §1

Downy Brome [1] = assay: post-emergent herbicidal activity, greenhouse
How it was run: as §1

Quackgrass [2] = assay: post-emergent herbicidal activity, greenhouse; settings: Table I, 4 WAT
How it was run: as §1

Panicum Spp = assay: post-emergent herbicidal activity, greenhouse; settings: Table II
How it was run: as §1

Barnyardgrass [3] = assay: post-emergent herbicidal activity, greenhouse
How it was run: as §1

Rice = assay: post-emergent herbicidal activity, greenhouse; settings: Table II
How it was run: as §1

Hemp Sesbania = assay: post-emergent herbicidal activity, greenhouse; settings: Table II
How it was run: as §1

Canada Thistle [4] = assay: post-emergent herbicidal activity, greenhouse; settings: Table I, 4 WAT
How it was run: as §1

Sorghum = assay: post-emergent herbicidal activity, greenhouse; settings: Table II
How it was run: as §1

Wild Buckwheat = assay: post-emergent herbicidal activity, greenhouse; settings: Table II
How it was run: as §1

Morningglory [5] = assay: post-emergent herbicidal activity, greenhouse
How it was run: as §1

Lambsquarters [6] = assay: post-emergent herbicidal activity, greenhouse
How it was run: as §1

Yellow Nutsedge [7] = assay: post-emergent herbicidal activity, greenhouse; settings: Table I, 4 WAT
How it was run: as §1

Cocklebur [8] = assay: post-emergent herbicidal activity, greenhouse
How it was run: as §1

Sugar Beet = assay: post-emergent herbicidal activity, greenhouse; settings: Table II
How it was run: as §1

Smartweed [9] = assay: post-emergent herbicidal activity, greenhouse
How it was run: as §1

Johnsongrass [10] = assay: post-emergent herbicidal activity, greenhouse; settings: Table I, 4 WAT
How it was run: as §1

Velvetleaf [11] = assay: post-emergent herbicidal activity, greenhouse
How it was run: as §1

Downy Brome [12] = assay: pre-emergent herbicidal activity, soil incorporation; settings: Table III, 2 WAT, 11.2 kg/h
Excerpt: (§2) A good grade of top soil is placed in aluminum pans and compacted to a depth of 0.95 to 1.27 cm. from the top of each pan. A predetermined number of seeds or vegetative propagules of each of several plant species are placed on top of the soil in each pan and then pressed down. Herbicidal compositions prepared as in the previous example are applied by admixture with or incorporation in the top layer of soil.
(§3) In this method, the soil required to cover the seeds and propagules is weighed and admixed with a herbicidal composition containing a known amount of the active ingredient (compound of this invention). The pans are then filled with the admixture and leveled. Watering is carried out by permitting the soil in the pans to absorb moisture through apertures in the pan bottoms. The seed and propagule containing pans are placed on a wet sand bench and maintained for approximately two weeks under ordinary conditions of sunlight and watering. At the end of this period, the number of emerged plants of each species is noted and compared to an untreated control.
(§4) The pre-emergent herbicidal activity index used below is based upon average percent control of each species as follows: […]

Quackgrass [13] = assay: as above; settings: Table III, 2 WAT, 11.2 kg/h
Excerpt: as §2, §3, §4

Barnyardgrass [14] = assay: as above; settings: Table III, 2 WAT, 11.2 kg/h
Excerpt: as §2, §3, §4

Canada Thistle [15] = assay: as above; settings: Table III, 2 WAT, 11.2 kg/h
Excerpt: as §2, §3, §4

Morningglory [16] = assay: as above; settings: Table III, 2 WAT, 11.2 kg/h
Excerpt: as §2, §3, §4

Lambsquarters [17] = assay: as above; settings: Table III, 2 WAT, 11.2 kg/h
Excerpt: as §2, §3, §4

Yellow Nutsedge [18] = assay: as above; settings: Table III, 2 WAT, 11.2 kg/h
Excerpt: as §2, §3, §4

Cocklebur [19] = assay: as above; settings: Table III, 2 WAT, 11.2 kg/h
Excerpt: as §2, §3, §4

Smartweed [20] = assay: as above; settings: Table III, 2 WAT, 11.2 kg/h
Excerpt: as §2, §3, §4

Johnsongrass [21] = assay: as above; settings: Table III, 2 WAT, 11.2 kg/h
Excerpt: as §2, §3, §4

Velvetleaf [22] = assay: as above; settings: Table III, 2 WAT, 11.2 kg/h
Excerpt: as §2, §3, §4

[23] = 2** WAT, 0.056 kg/h, applied in 100 GPA THF
[24] = Table II, 2** WAT, 0.056 kg/h, applied in 100 GPA THF

CCOC(=O)CNCP(=O)(O)OC(C#N)CC (stereo not drawn) [Example 8, glycine, N-[[(1-cyanopropoxy)hydroxyphosphinyl]methyl],ethyl ester]
4 (100% control): post-emergent herbicidal activity index (Soybean; 4 WAT, 5.6 kg/h) | post-emergent herbicidal activity index (Wheat; 4 WAT, 1.12 kg/h) | post-emergent herbicidal activity index (Wheat; 4 WAT, 5.6 kg/h) | post-emergent herbicidal activity index (Downy Brome [1]; Table I, 4 WAT, 11.2 kg/h) | post-emergent herbicidal activity index (Quackgrass [2]; 5.6 kg/h) | post-emergent herbicidal activity index (Quackgrass [2]; 11.2 kg/h) | post-emergent herbicidal activity index (Panicum Spp; 4 WAT, 1.12 kg/h) | post-emergent herbicidal activity index (Panicum Spp; 4 WAT, 5.6 kg/h) | post-emergent herbicidal activity index (Barnyardgrass [3]; Table I, 4 WAT, 11.2 kg/h) | post-emergent herbicidal activity index (Barnyardgrass [3]; Table II, 4 WAT, 1.12 kg/h) | post-emergent herbicidal activity index (Barnyardgrass [3]; Table II, 4 WAT, 5.6 kg/h) | post-emergent herbicidal activity index (Rice; 4 WAT, 5.6 kg/h) | post-emergent herbicidal activity index (Hemp Sesbania; 4 WAT, 5.6 kg/h) | post-emergent herbicidal activity index (Canada Thistle [4]; 5.6 kg/h) | post-emergent herbicidal activity index (Canada Thistle [4]; 11.2 kg/h) | post-emergent herbicidal activity index (Sorghum; 4 WAT, 1.12 kg/h) | post-emergent herbicidal activity index (Sorghum; 4 WAT, 5.6 kg/h) | post-emergent herbicidal activity index (Wild Buckwheat; 4 WAT, 5.6 kg/h) | post-emergent herbicidal activity index (Lambsquarters [6]; Table I, 4 WAT, 5.6 kg/h) | post-emergent herbicidal activity index (Lambsquarters [6]; Table I, 4 WAT, 11.2 kg/h) | post-emergent herbicidal activity index (Lambsquarters [6]; Table II, 4 WAT, 5.6 kg/h) | post-emergent herbicidal activity index (Yellow Nutsedge [7]; 11.2 kg/h) | post-emergent herbicidal activity index (Cocklebur [8]; Table I, 4 WAT, 11.2 kg/h) | post-emergent herbicidal activity index (Cocklebur [8]; Table II, 4 WAT, 5.6 kg/h) | post-emergent herbicidal activity index (Sugar Beet; 4 WAT, 1.12 kg/h) | post-emergent herbicidal activity index (Sugar Beet; 4 WAT, 5.6 kg/h) | post-emergent herbicidal activity index (Smartweed [9]; Table I, 4 WAT, 5.6 kg/h) | post-emergent herbicidal activity index (Smartweed [9]; Table I, 4 WAT, 11.2 kg/h) | post-emergent herbicidal activity index (Smartweed [9]; Table II, 4 WAT, 5.6 kg/h) | post-emergent herbicidal activity index (Johnsongrass [10]; 11.2 kg/h) | post-emergent herbicidal activity index (Velvetleaf [11]; Table I, 4 WAT, 11.2 kg/h)
1 (25-49% control): post-emergent herbicidal activity index (Wheat; [23]) | post-emergent herbicidal activity index (Barnyardgrass [3]; [24]) | pre-emergent herbicidal activity index (Yellow Nutsedge [18])
2 (50-74% control): post-emergent herbicidal activity index (Hemp Sesbania; 4 WAT, 1.12 kg/h) | post-emergent herbicidal activity index (Morningglory [5]; Table I, 4 WAT, 5.6 kg/h) | pre-emergent herbicidal activity index (Quackgrass [13]) | pre-emergent herbicidal activity index (Johnsongrass [21])
3 (75-100% control): pre-emergent herbicidal activity index (Canada Thistle [15])
3 (75-99% control): post-emergent herbicidal activity index (Soybean; 4 WAT, 1.12 kg/h) | post-emergent herbicidal activity index (Downy Brome [1]; Table I, 4 WAT, 5.6 kg/h) | post-emergent herbicidal activity index (Downy Brome [1]; Table II, 4 WAT, 1.12 kg/h) | post-emergent herbicidal activity index (Downy Brome [1]; Table II, 4 WAT, 5.6 kg/h) | post-emergent herbicidal activity index (Barnyardgrass [3]; Table I, 4 WAT, 5.6 kg/h) | post-emergent herbicidal activity index (Rice; 4 WAT, 1.12 kg/h) | post-emergent herbicidal activity index (Wild Buckwheat; 4 WAT, 1.12 kg/h) | post-emergent herbicidal activity index (Morningglory [5]; Table I, 4 WAT, 11.2 kg/h) | post-emergent herbicidal activity index (Morningglory [5]; Table II, 4 WAT, 1.12 kg/h) | post-emergent herbicidal activity index (Morningglory [5]; Table II, 4 WAT, 5.6 kg/h) | post-emergent herbicidal activity index (Lambsquarters [6]; Table II, 4 WAT, 1.12 kg/h) | post-emergent herbicidal activity index (Yellow Nutsedge [7]; 5.6 kg/h) | post-emergent herbicidal activity index (Cocklebur [8]; Table I, 4 WAT, 5.6 kg/h) | post-emergent herbicidal activity index (Cocklebur [8]; Table II, 4 WAT, 1.12 kg/h) | post-emergent herbicidal activity index (Smartweed [9]; Table II, 4 WAT, 1.12 kg/h) | post-emergent herbicidal activity index (Johnsongrass [10]; 5.6 kg/h) | post-emergent herbicidal activity index (Velvetleaf [11]; Table I, 4 WAT, 5.6 kg/h) | post-emergent herbicidal activity index (Velvetleaf [11]; Table II, 4 WAT, 1.12 kg/h) | post-emergent herbicidal activity index (Velvetleaf [11]; Table II, 4 WAT, 5.6 kg/h)
0 (1-24% control): pre-emergent herbicidal activity index (Downy Brome [12]) | pre-emergent herbicidal activity index (Barnyardgrass [14]) | pre-emergent herbicidal activity index (Morningglory [16]) | pre-emergent herbicidal activity index (Lambsquarters [17]) | pre-emergent herbicidal activity index (Cocklebur [19]) | pre-emergent herbicidal activity index (Smartweed [20]) | pre-emergent herbicidal activity index (Velvetleaf [22])
0 (0-24% control): post-emergent herbicidal activity index (Soybean; [23]) | post-emergent herbicidal activity index (Downy Brome [1]; [24]) | post-emergent herbicidal activity index (Panicum Spp; [23]) | post-emergent herbicidal activity index (Rice; [23]) | post-emergent herbicidal activity index (Hemp Sesbania; [23]) | post-emergent herbicidal activity index (Sorghum; [23]) | post-emergent herbicidal activity index (Wild Buckwheat; [23]) | post-emergent herbicidal activity index (Morningglory [5]; [24]) | post-emergent herbicidal activity index (Lambsquarters [6]; [24]) | post-emergent herbicidal activity index (Cocklebur [8]; [24]) | post-emergent herbicidal activity index (Sugar Beet; [23]) | post-emergent herbicidal activity index (Smartweed [9]; [24]) | post-emergent herbicidal activity index (Velvetleaf [11]; [24])
